AC50 data for 12 compounds are collected here from ChEMBL document CHEMBL5291721, “A preclinical secondary pharmacology resource illuminates target-adverse drug reaction associations of marketed drugs” (Nat Commun, 2023).

Experiment [1] deals with T1, Alpha-1A adrenergic receptor (Homo sapiens, UniProt P35348).
T1 sequence (P35348 whole entry): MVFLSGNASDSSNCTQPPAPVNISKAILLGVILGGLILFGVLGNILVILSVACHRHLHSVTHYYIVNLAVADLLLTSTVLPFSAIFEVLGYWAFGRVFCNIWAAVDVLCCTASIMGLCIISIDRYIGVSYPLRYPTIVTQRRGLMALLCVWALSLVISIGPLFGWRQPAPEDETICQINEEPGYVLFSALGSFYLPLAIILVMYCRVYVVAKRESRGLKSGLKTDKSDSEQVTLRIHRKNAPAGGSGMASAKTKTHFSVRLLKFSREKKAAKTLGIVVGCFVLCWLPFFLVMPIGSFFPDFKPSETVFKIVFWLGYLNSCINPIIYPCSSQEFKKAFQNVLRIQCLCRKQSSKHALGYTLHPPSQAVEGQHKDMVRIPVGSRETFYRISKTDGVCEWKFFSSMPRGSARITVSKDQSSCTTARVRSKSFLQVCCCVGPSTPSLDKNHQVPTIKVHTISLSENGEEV
It counts as functional, cell-based.

Experiment [2] deals with T2, Alpha-2B adrenergic receptor (Homo sapiens, UniProt P18089).
T2 sequence (P18089 whole entry): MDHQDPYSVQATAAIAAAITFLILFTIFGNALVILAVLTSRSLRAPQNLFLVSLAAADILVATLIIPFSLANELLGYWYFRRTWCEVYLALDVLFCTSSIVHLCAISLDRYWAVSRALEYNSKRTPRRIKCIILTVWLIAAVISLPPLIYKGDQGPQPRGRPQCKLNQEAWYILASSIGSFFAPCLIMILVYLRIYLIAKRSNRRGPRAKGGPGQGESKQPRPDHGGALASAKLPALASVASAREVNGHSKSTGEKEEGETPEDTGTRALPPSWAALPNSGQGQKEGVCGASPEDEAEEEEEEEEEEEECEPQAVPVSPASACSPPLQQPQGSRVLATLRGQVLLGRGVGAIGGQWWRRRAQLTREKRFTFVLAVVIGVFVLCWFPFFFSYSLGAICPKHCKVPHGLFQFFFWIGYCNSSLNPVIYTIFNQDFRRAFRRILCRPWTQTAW

Experiment [3] concerns the target Beta-2 adrenergic receptor (Homo sapiens, UniProt P07550).
Experiment [4] concerns the target T3, Muscarinic acetylcholine receptor M1 (Homo sapiens, UniProt P11229).
T3 sequence (P11229 whole entry): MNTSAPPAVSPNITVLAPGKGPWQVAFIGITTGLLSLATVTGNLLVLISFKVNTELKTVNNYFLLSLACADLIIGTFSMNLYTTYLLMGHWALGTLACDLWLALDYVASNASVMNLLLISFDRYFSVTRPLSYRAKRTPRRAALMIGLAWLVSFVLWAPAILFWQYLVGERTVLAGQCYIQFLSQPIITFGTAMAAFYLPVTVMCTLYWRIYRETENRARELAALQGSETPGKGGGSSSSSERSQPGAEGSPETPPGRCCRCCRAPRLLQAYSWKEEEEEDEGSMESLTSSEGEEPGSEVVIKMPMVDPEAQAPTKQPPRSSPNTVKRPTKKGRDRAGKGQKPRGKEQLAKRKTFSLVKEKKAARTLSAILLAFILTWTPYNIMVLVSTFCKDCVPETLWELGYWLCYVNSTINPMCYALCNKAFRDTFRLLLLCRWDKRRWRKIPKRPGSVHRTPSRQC
It counts as functional.

Experiment [5] addresses Neuronal acetylcholine receptor subunit alpha-4 (Homo sapiens, UniProt P43681).
Experiment [6] has as its target Gamma-aminobutyric acid receptor subunit alpha-1 (Rattus norvegicus, UniProt P62813).
In experiment [7] the target is Glutamate receptor ionotropic, NMDA 1 (Rattus norvegicus, UniProt P35439).
Experiment [8] concerns the target T4, 5-hydroxytryptamine receptor 1A (Homo sapiens, UniProt P08908).
T4 sequence (P08908 whole entry): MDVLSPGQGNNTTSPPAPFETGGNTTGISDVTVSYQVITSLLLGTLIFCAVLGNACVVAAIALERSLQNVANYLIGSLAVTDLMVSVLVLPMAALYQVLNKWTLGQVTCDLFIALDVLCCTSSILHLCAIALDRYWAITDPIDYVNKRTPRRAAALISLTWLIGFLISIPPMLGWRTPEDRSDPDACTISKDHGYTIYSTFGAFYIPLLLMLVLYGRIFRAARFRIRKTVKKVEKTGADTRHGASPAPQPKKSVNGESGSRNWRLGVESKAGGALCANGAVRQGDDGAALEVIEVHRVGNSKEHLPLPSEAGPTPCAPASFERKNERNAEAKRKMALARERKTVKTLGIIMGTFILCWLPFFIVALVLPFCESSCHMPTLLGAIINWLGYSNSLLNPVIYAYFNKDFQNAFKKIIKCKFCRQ
It counts as functional, cell-based.

Experiment [9] deals with Voltage-gated inwardly rectifying potassium channel KCNH2 (Homo sapiens, UniProt Q12809). It is filed as functional. To be noted: read-out: AC50.
Sequence of Voltage-gated inwardly rectifying potassium channel KCNH2 (Q12809 whole entry): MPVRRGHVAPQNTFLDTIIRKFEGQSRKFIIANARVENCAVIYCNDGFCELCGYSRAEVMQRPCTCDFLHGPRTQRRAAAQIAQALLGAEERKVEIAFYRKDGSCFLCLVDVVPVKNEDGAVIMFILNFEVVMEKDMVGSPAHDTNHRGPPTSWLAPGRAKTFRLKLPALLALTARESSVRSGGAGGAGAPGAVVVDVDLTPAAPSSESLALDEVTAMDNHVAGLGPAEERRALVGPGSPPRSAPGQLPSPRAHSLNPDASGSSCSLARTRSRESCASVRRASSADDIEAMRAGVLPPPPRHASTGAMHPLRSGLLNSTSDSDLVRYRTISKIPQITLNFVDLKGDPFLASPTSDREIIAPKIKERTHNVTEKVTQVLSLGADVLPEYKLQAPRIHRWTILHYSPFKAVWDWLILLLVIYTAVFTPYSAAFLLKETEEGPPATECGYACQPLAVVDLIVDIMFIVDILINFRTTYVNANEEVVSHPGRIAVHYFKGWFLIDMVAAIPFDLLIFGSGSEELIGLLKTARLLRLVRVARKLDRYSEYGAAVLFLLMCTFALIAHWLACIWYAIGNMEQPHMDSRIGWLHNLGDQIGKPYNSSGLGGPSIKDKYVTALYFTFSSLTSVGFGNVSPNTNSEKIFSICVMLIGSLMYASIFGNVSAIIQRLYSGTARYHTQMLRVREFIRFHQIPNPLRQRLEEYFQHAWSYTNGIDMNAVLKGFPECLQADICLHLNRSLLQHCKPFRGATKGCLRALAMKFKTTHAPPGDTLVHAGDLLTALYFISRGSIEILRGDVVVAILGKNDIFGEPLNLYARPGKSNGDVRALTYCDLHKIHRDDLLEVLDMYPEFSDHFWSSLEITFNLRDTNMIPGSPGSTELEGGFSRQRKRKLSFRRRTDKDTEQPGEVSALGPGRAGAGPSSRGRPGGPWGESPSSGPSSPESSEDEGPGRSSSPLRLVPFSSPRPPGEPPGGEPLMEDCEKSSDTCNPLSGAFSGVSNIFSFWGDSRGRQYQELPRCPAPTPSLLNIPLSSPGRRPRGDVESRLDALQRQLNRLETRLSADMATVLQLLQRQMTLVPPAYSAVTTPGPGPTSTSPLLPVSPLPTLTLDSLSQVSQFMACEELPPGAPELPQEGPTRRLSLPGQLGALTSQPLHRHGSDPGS
A further experiment addresses Melanocortin receptor 3 (Homo sapiens, UniProt P41968).
The target in experiment [10] is T5, Neuropeptide Y receptor type 1 (Homo sapiens, UniProt P25929).
T5 sequence (P25929 whole entry): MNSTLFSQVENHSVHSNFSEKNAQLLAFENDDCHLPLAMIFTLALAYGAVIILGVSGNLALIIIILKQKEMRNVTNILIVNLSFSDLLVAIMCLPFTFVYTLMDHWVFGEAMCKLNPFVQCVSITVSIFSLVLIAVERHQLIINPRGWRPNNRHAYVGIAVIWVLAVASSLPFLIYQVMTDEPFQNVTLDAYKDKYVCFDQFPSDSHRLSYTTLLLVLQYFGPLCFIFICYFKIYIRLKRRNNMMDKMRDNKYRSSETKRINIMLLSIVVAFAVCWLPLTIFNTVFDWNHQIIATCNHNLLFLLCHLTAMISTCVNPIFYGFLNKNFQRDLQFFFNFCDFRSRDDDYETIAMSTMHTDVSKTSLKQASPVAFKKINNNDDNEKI
Note: assay procedure not described here.

Sequence of Gamma-aminobutyric acid receptor subunit alpha-1 (P62813 whole entry): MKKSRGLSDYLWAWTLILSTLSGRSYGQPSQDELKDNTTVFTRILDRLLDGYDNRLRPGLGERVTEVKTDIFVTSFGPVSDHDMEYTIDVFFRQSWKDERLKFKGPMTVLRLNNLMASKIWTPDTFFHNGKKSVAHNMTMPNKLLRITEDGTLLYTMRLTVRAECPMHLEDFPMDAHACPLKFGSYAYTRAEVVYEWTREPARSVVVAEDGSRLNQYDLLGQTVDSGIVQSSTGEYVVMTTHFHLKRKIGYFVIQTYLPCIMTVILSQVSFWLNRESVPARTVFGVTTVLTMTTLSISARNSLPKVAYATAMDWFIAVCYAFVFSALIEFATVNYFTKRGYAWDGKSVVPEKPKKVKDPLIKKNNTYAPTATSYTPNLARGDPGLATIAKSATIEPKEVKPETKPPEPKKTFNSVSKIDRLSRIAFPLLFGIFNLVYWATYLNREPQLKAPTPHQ
Sequence of Neuronal acetylcholine receptor subunit alpha-4 (P43681 whole entry): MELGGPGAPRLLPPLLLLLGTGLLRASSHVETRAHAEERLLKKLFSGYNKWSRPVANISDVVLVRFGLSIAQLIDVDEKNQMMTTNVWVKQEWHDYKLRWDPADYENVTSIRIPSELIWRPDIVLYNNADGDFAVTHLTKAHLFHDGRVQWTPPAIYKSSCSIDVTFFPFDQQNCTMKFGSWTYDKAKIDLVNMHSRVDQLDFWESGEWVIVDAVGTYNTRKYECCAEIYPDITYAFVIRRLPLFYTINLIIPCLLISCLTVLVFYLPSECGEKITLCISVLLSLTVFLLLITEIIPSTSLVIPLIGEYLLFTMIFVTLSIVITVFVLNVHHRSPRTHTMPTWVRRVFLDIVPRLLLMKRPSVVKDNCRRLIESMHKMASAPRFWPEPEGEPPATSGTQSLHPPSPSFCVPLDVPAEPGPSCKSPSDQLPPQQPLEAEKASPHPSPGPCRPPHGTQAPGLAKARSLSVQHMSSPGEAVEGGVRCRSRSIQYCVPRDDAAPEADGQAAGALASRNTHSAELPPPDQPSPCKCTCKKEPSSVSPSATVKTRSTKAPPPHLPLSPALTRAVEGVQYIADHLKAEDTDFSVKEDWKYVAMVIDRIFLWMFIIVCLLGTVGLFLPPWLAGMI
Sequence of Beta-2 adrenergic receptor (P07550 whole entry): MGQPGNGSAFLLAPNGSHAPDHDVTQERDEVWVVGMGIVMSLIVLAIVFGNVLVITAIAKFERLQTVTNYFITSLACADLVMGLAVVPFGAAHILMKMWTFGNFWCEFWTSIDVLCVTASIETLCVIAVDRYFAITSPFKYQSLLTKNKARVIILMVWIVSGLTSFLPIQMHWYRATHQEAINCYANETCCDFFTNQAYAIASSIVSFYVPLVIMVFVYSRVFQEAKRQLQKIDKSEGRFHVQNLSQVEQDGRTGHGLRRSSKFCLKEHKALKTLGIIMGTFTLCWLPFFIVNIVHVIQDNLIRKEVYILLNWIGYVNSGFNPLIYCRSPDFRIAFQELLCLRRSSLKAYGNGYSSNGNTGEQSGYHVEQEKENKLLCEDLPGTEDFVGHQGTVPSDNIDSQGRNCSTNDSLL
Sequence of Melanocortin receptor 3 (P41968 whole entry): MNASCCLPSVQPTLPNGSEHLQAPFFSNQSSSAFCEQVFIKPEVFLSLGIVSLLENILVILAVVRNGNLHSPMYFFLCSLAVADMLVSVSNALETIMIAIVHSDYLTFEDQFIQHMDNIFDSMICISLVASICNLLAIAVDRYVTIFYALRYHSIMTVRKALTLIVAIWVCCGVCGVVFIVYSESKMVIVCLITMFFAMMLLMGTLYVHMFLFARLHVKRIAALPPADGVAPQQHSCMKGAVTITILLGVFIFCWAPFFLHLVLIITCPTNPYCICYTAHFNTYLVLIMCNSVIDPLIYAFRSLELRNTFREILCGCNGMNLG

`C=CCC1(CC(C)C)C(=O)NC(=O)NC1=O` [BUTALBITAL]: the half-maximal activity concentration (AC50) was over 30 µM in experiment [1]; over 30 µM in experiment [2]; over 10 µM in experiment [3]; over 30 µM in [4]; over 10 µM in experiment [5]; over 10 µM in experiment [6]. The concentration at half-maximal activity (AC50) is over 10 µM in experiment [7]; over 10 µM in experiment [8]; over 30 µM in experiment [9]; over 10 µM on Melanocortin receptor 3; over 10 µM in [10].
Take `CCCC(=O)O[C@]1(C(=O)CO)CC[C@H]2[C@@H]3CCC4=CC(=O)CC[C@]4(C)[C@H]3[C@@H](O)C[C@@]21C` [HYDROCORTISONE BUTYRATE]: the AC50 in [2], in experiment [3], in experiment [4], in experiment [5], in experiment [6] and in experiment [7] was over 10 µM in each case. Also, the AC50 was over 10 µM in [8], over 30 µM in experiment [9], over 10 µM on Melanocortin receptor 3 and over 10 µM in [10].
Consider `CO[C@@H]1[C@@H](O[C@@H]2O[C@H](C)[C@@H](O[C@H]3C[C@@](C)(O)[C@@H](OC(=O)CC(C)C)[C@H](C)O3)[C@H](N(C)C)[C@H]2O)[C@@H](CC=O)C[C@@H](C)[C@@H](O)/C=C/C=C/C[C@@H](C)OC(=O)C[C@H]1OC(C)=O` [JOSAMYCIN], for which the half-maximal activity concentration (AC50) in [2], in experiment [3], in experiment [4], in experiment [5], in experiment [6] and in [7] was over 10 µM each time. The concentration at half-maximal activity (AC50) in experiment [8] is over 10 µM; in experiment [9], over 30 µM; on Melanocortin receptor 3, over 10 µM; in experiment [10], over 10 µM.
On to `COC(=O)C1=C(C)NC(C)=C(C(=O)OC(C)(C)CN(C)CCC(c2ccccc2)c2ccccc2)C1c1cccc([N+](=O)[O-])c1` (stereo unspecified) [LERCANIDIPINE], for which the AC50 in experiment [2], in experiment [3], in experiment [4], in experiment [5], in [6] and in experiment [7] was over 30 µM in each case. The concentration at half-maximal activity (AC50) (in experiment [8]; in experiment [9]; on Melanocortin receptor 3; in experiment [10]) was over 30 µM each time.
For the compound `Cc1cccc(C(C)c2cnc[nH]2)c1C` (stereo unspecified) [MEDETOMIDINE], the concentration at half-maximal activity (AC50) is 2.1 µM in [2]; over 30 µM in experiment [3]; over 30 µM in [4]; over 30 µM in experiment [5]; over 10 µM in [6]; over 10 µM in experiment [7]. Further, the AC50 was over 30 µM in experiment [8], 17.8 µM in experiment [9], over 30 µM on Melanocortin receptor 3 and over 30 µM in experiment [10].
For `C[C@H](N)[C@H](O)c1cccc(O)c1` [METARAMINOL], the concentration at half-maximal activity (AC50) is over 10 µM in [2]; over 30 µM in experiment [3]; over 10 µM in experiment [4]; over 10 µM in experiment [5]; over 10 µM in [6]; over 10 µM in experiment [7]. For the same compound, the concentration at half-maximal activity (AC50) in experiment [8] is over 10 µM; in [9] it was over 30 µM; on Melanocortin receptor 3, over 10 µM; in experiment [10] it was over 10 µM.
Regarding `O=C(O)[C@H](CC(=O)N1C[C@H]2CCCC[C@H]2C1)Cc1ccccc1` [MITIGLINIDE], the AC50 in [2], in experiment [3], in experiment [4], in experiment [5], in [6] and in [7] was over 10 µM in each case. Besides, the AC50 is over 10 µM in [8], over 30 µM in [9], over 10 µM at Melanocortin receptor 3 and over 10 µM in [10].
On to `CCCC(C)C1(CC)C(=O)NC(=O)NC1=O` (stereo unspecified) [PENTOBARBITAL], for which the AC50 in experiment [1] is over 30 µM; in experiment [2], over 30 µM; in [3] it was over 10 µM; in experiment [4] it was over 30 µM; in experiment [5] it was over 10 µM; in experiment [7] it was over 10 µM. In addition, the AC50 in experiment [8] was over 10 µM; in experiment [9], over 30 µM; at Melanocortin receptor 3, over 10 µM; in experiment [10], over 10 µM.
Take `C#C[C@]1(O)CC[C@H]2[C@@H]3CCc4cc(OC5CCCC5)ccc4[C@H]3CC[C@@]21C` [QUINESTROL]: the half-maximal activity concentration (AC50) in [2], in [3], in experiment [4], in experiment [5], in experiment [6] and in experiment [7] was over 10 µM in each case. Also, the half-maximal activity concentration (AC50) in experiment [8] was over 10 µM; in experiment [9] it was over 30 µM; at Melanocortin receptor 3 it was over 10 µM; in experiment [10], over 10 µM.
As to `COC(=O)[C@H]1[C@H]2C[C@@H]3c4[nH]c5cc(OC)ccc5c4CCN3C[C@H]2C[C@@H](OC(=O)/C=C/c2cc(OC)c(OC)c(OC)c2)[C@@H]1OC` [RESCINNAMINE], the AC50 in [2], in [3], in experiment [4], in [5], in [6] and in [7] was over 10 µM in each case. Further, the AC50 is over 10 µM in [8], 0.988 µM in experiment [9], over 10 µM at Melanocortin receptor 3 and over 10 µM in experiment [10].
In the case of `C=CCC1(C(C)CC)C(=O)NC(=O)NC1=O` (stereo unspecified) [TALBUTAL], the AC50 in experiment [2], in experiment [3], in experiment [4], in [5], in [6] and in [7] was over 10 µM in each case. The AC50 in [8] is over 10 µM; in [9], over 30 µM; at Melanocortin receptor 3, over 10 µM; in experiment [10] it was over 10 µM.
As to `C[C@H](CSC(=O)c1ccccc1)C(=O)N1C[C@@H](Sc2ccccc2)C[C@H]1C(=O)O` [ZOFENOPRIL], the half-maximal activity concentration (AC50) in experiment [2], in experiment [3], in [4], in experiment [5], in experiment [6] and in experiment [7] was over 10 µM in each case. The AC50 in experiment [8] was over 10 µM; in experiment [9], over 30 µM; on Melanocortin receptor 3 it was over 10 µM; in experiment [10], over 10 µM.
